The target in the assay is fascin 1 (Homo sapiens, UniProt Q16658). In words: X-ray co-crystal structure. The format is biochemical.

Structures are written as SMILES.

Usually IC50 stands for the concentration at which inhibition is half-maximal. A higher IC50 goes with lower potency. Take `Cc1cnoc1C(=O)Nc1nn(Cc2ccc(C(F)(F)F)cc2)c2ccccc12` [NP-G2-029, 4-methyl-N-(1-(4-(trifluoromethyl)benzyl)-1H-indazol-3-yl)isoxazole-5-carboxamide]: the IC50 was ~180 nM.
